Measured values: patent US20070093520A1, “Method of treatment of diarrhea-predominant irritable bowel syndrome in a subject” (priority 2005, published 2007)
Like-named read-outs stand apart in the source and are kept apart here.

Test system: diarrhea-predominant IBS subjects
Assay type: in vivo, human
Settings: for Number of subjects who died / Primary reason for withdrawal: Adverse event and lack of efficacy / Primary reason for withdrawal: Baseline complaint/adverse event: 2 mg TID
Method: The study was performed in approximately 150 study centers. Approximately 1600 eligible subjects were to be given cilansetron 2 mg TID. At Visit 1, pre-treatment assessments were conducted. […] Subjects were to return to the study site one month later for Visit 3 (Day 31) for their first interim assessment. […] All subjects who discontinued from the study were to have the same post-study assessments required at Visit 7 performed at their early termination visit. […]
Stool specimens were analyzed at every visit for occult blood. An independent GERB had been established to provide advice on GI AEs during the course of the study.
Adverse events were assessed at Baseline, at each clinic visit, and at the end of the study (Month 12 or the early termination visit). All AEs, which occurred during the study were followed up in accordance with good medical practice until resolved or judged no longer clinically significant, or if a condition was chronic, until fully characterized. Adverse events could occur in the specified follow-up period and, regardless of the interval since the last administration of the study medication, were treated in the same manner as an AE which occurred during the treatment with study medication. Each AE was evaluated for duration, severity, seriousness, and causal relationship to the investigational drug. The action taken and the outcome were also recorded.
Specifically, subjects who were lost to follow-up and had no post-Baseline contact with the site were excluded from the Safety population. The subjects who discontinued from the study due to lost to follow-up were identified based on the information collected on the study termination CRF page.
After the pretreatment assessment at Visit 1 (Days […] to −3), subjects were to return to the study site for a Baseline assessment and start the treatment at Visit 2 (Day 1).
For the by time-interval analyses of disposition, prevalence of AEs, and of markedly abnormal and predefined changes in laboratory values, vital signs, and ECGs, the following interval windows were used:
Adverse events that were already present prior to the first dose of cilansetron study medication but increased in severity afterwards were considered as treatment-emergent.
The 5% cutoff point was based on the incidence within higher level terms.
Subjects were counted at most once for each primary system organ class and preferred term. Serious AEs that resolved prior to receiving study medication or occurred more than 30 days after the last dose of study medication were not included in the incidence tables. A listing of all SAEs is presented; SAEs with onset prior to receiving study medication or more than 30 days after discontinuation of study medication were flagged. The listing presents lower level term and preferred term of the SAE, severity, action taken, outcome, and relationship of the SAE, start and stop date of the SAE, study day of onset of the SAE, age, race, and sex.

[1] = Cilansetron 2 mg, N=1454, % of appropriate gender
[2] = Study 3008, 2 mg TID (N = 1454)
[3] = Study 3008, of subjects who received study medication
[4] = TEAE incidence, 2 mg, Safety Population, HLT

SMILES: Cc1nccn1C[C@H]1CCc2c(c3cccc4c3n2CCC4)C1=O [cilansetron, (R)-(−)-4,5,6,8,9,10-hexahydro-10-[(2-methyl-1H-imidazol-1-yl)methyl]-11H-pyrido-[3,2,1-jk]-carbazol-11-one]
- TEAE incidence: Transient Cerebrovascular Events (Cilansetron 2 mg, N=1454): 1 (<1%) n (%)
- TEAE incidence: Transient Global Amnesia (Cilansetron 2 mg, N=1454): 1 (<1%) n (%)
- TEAE incidence: Transient Ischaemic Attack (Cilansetron 2 mg, N=1454): 1 (<1%) n (%)
- TEAE incidence: Tremor (Cilansetron 2 mg, N=1454): 2 (<1%) n (%)
- TEAE incidence: Tremor (Excl Congenital) (Cilansetron 2 mg, N=1454): 2 (<1%) n (%)
- TEAE incidence: Triglyceride Analyses (Cilansetron 2 mg, N=1454): 11 (<1%) n (%)
- TEAE incidence: Urethritis Non-Specific (Cilansetron 2 mg, N=1454): 1 (<1%) n (%)
- TEAE incidence: Urinalysis NEC (Cilansetron 2 mg, N=1454): 20 (1%) n (%)
- TEAE incidence: Urine Bilirubin Increased (Cilansetron 2 mg, N=1454): 2 (<1%) n (%)
- TEAE incidence: Urine Ketone Body Present (Cilansetron 2 mg, N=1454): 2 (<1%) n (%)
- TEAE incidence: Vascular Tests NEC (Incl Blood Pressure) (Cilansetron 2 mg, N=1454): 7 (<1%) n (%)
- TEAE incidence: Vasovagal Attack (Cilansetron 2 mg, N=1454): 1 (<1%) n (%)
- TEAE incidence: Viraemia NOS Present (Cilansetron 2 mg, N=1454): 3 (<1%) n (%)
- TEAE incidence: Vitamin Analyses (Cilansetron 2 mg, N=1454): 1 (<1%) n (%)
- TEAE incidence: Vitamin B12 Decreased (Cilansetron 2 mg, N=1454): 1 (<1%) n (%)
- TEAE incidence: Vomiting NOS (Cilansetron 2 mg, N=1454): 25 (2%) n (%)
- TEAE incidence: Weight Decreased (Cilansetron 2 mg, N=1454): 3 (<1%) n (%)
- TEAE incidence: Weight Increased (Cilansetron 2 mg, N=1454): 13 (<1%) n (%)
- TEAE incidence: White Blood Cell Analyses (Cilansetron 2 mg, N=1454): 25 (2%) n (%)
- TEAE incidence: White Blood Cell Count Decreased (Cilansetron 2 mg, N=1454): 4 (<1%) n (%)
- TEAE incidence: White Blood Cell Count Increased (Cilansetron 2 mg, N=1454): 1 (<1%) n (%)
- TEAE incidence: White Blood Cells Urine (Cilansetron 2 mg, N=1454): 3 (<1%) n (%)
- TEAE incidence: White Blood Cells Urine Positive (Cilansetron 2 mg, N=1454): 2 (<1%) n (%)
- TEAE incidence: abdominal pain NOS (Cilansetron 2 mg, N=1454): 156 (11%) n (%)
- TEAE incidence: back pain (Cilansetron 2 mg, N=1454): 40 (3%) n (%)
- TEAE incidence: constipation (Cilansetron 2 mg, N=1454): 222 (15%) n (%)
- TEAE incidence: flatulence (Cilansetron 2 mg, N=1454): 38 (3%) n (%)
- TEAE incidence: flatulence, bloating and distension (Cilansetron 2 mg, N=1454): 91 (6%) n (%)
- TEAE incidence: headache NOS (Cilansetron 2 mg, N=1454): 100 (7%) n (%)
- TEAE incidence: nasopharyngitis (Cilansetron 2 mg, N=1454): 44 (3%) n (%)
- TEAE incidence: nausea (Cilansetron 2 mg, N=1454): 78 (5%) n (%)
- TEAE incidence: nausea and vomiting symptoms (Cilansetron 2 mg, N=1454): 92 (6%) n (%)
- TEAE incidence: sinusitis NOS (Cilansetron 2 mg, N=1454): 25 (2%) n (%)
- Total Number of Subjects with at Least One TEAE (Cilansetron 2 mg, N=1454): 931 (64%) n (%)
- TEAE incidence: Female Reproductive Tract Infections* [1]: 4 (<1%) n (%)
- TEAE incidence: Oophoritis* [1]: 1 (<1%) n (%)
- TEAE incidence: Pelvic Inflammatory Disease NOS* [1]: 1 (<1%) n (%)
- TEAE incidence: Vaginal Candidiasis* [1]: 5 (<1%) n (%)
- TEAE incidence: Vaginitis* [1]: 2 (<1%) n (%)
- TEAE incidence: Vulvovaginitis Trichomonal* [1]: 1 (<1%) n (%)
- TEAEs that led to dose reduction (Study 3008): 2%
- TEAEs that led to permanent discontinuation of study medication (Study 3008): Thirteen
- overall incidence of TEAEs possibly, probably, or unlikely related to study medication (Study 3008): 42%
- severe TEAEs (Study 3008): 9%
- special interest TEAEs (Study 3008): 54%
- subjects with a treatment emergent SAE (Study 3008): Six
- subjects with at least one TEAE (Study 3008): Sixty-four
- withdrawal for AEs (combined categories) (Study 3008): 13%
- withdrawal for lack of efficacy (combined categories) (Study 3008): 12%
- Number of subjects who died (Study 3008): 1 n
- Primary reason for withdrawal: Adverse event and lack of efficacy (Study 3008): 119 n
- Primary reason for withdrawal: Baseline complaint/adverse event (Study 3008): 75 n
- Number of deaths [2]: 1 (<1) n (%)
- Number of subjects who permanently discontinued study medication due to a TEAE [2]: 192 (13) n (%)
- Number of subjects with at least one AE of special interest [2]: 789 (54) n (%)
- Number of subjects with at least one SAE [2]: 85 (6) n (%)
- Number of subjects with at least one TEAE [2]: 931 (64) n (%)
- Number of subjects with at least one TEAE leading to dose reduction [2]: 34 (2) n (%)
- Number of subjects with at least one related TEAE [2]: 604 (42) n (%)
- Number of subjects with at least one severe TEAE [2]: 138 (9) n (%)
- Number of subjects who died [3]: (<1) %
- Primary reason for withdrawal: Adverse event and lack of efficacy [3]: (8) %
- Primary reason for withdrawal: Baseline complaint/adverse event [3]: (5) %
- Acnes [4]: 2 (<1%) n (%)
- Affect Alterations NEC [4]: 2 (<1%) n (%)
- Alopecias [4]: 6 (<1%) n (%)
- Anxiety Disorders NEC (Incl Obsessive Compulsive Disorder) [4]: 1 (<1%) n (%)
- Anxiety Symptoms [4]: 26 (2%) n (%)
- Apocrine and Eccrine Gland Disorders [4]: 8 (<1%) n (%)
- Appetite Disorders [4]: 15 (1%) n (%)
- Arthropathies NEC [4]: 6 (<1%) n (%)
- Asthenic Conditions [4]: 38 (3%) n (%)
- Benign and Malignant Breast Neoplasms* [4]: 2 (<1%) n (%)
- Bladder Disorders NEC [4]: 1 (<1%) n (%)
- Bladder and Urethral Symptoms [4]: 18 (1%) n (%)
- Breast Disorders NEC* [4]: 1 (<1%) n (%)
- Breast Signs and Symptoms* [4]: 4 (<1%) n (%)
- Breathing Abnormalities [4]: 7 (<1%) n (%)
- Bronchospasm and Obstruction [4]: 10 (<1%) n (%)
- Bursal Disorders [4]: 1 (<1%) n (%)
- Cardiac Conduction Disorders [4]: 4 (<1%) n (%)
- Cardiac Signs and Symptoms NEC [4]: 5 (<1%) n (%)
- Cartilage Disorders [4]: 1 (<1%) n (%)
- Cervix Disorders NEC* [4]: 1 (<1%) n (%)
- Chest and Lung Injuries NEC [4]: 1 (<1%) n (%)
- Connective Tissue Disorders (Excl Le) [4]: 1 (<1%) n (%)
- Coronary Artery Disorders NEC [4]: 2 (<1%) n (%)
- Coughing and Associated Symptoms [4]: 28 (2%) n (%)
- Depressive Disorders [4]: 28 (2%) n (%)
- Dermal and Epidermal Conditions NEC [4]: 4 (<1%) n (%)
- Dermatitis and Eczema [4]: 16 (1%) n (%)
- Diabetes Mellitus (Incl Subtypes) [4]: 4 (<1%) n (%)
- Dissociative States [4]: 1 (<1%) n (%)
- Disturbances in Initiating and Maintaining Sleep [4]: 20 (1%) n (%)
- Elevated Cholesterol [4]: 9 (<1%) n (%)
- Elevated Triglycerides [4]: 8 (<1%) n (%)
- Erection and Ejaculation Conditions and Disorders* [4]: 2 (<1%) n (%)
- Erythemas [4]: 1 (<1%) n (%)
- Extremity Deformities [4]: 1 (<1%) n (%)
- Eye Injuries NEC [4]: 1 (<1%) n (%)
- Fear Symptoms [4]: 1 (<1%) n (%)
- Febrile Disorders [4]: 20 (1%) n (%)
- Fluctuating Mood Symptoms [4]: 2 (<1%) n (%)
- Food Malabsorption and Intolerance Syndromes (Excl Sugar Intolerance) [4]: 1 (<1%) n (%)
- General Nutritional Disorders NEC [4]: 3 (<1%) n (%)
- General Signs and Symptoms NEC [4]: 14 (<1%) n (%)
- Heart Failure Signs and Symptoms [4]: 1 (<1%) n (%)
- Hyperglycaemic Conditions NEC [4]: 4 (<1%) n (%)
- Hyperlipidaemias NEC [4]: 3 (<1%) n (%)
- Increased Physical Activity Levels [4]: 1 (<1%) n (%)
- Intervertebral Disc Disorders NEC [4]: 3 (<1%) n (%)
- Ischaemic Coronary Artery Disorders [4]: 7 (<1%) n (%)
- Joint Related Signs and Symptoms [4]: 31 (2%) n (%)
